Values quoted from earlier work, collected in patent US20020010202A1, “Combinations of prostaglandins and brimonidine or derivatives thereof” (Allergan Sales, Inc., priority 1994, published 2002).

Columns and labels:
[1] = pressure rise with microkeratomes in LASIK
[2] = in vivo
[3] = adjunctive to timolol in patients; statistically significant

Structure (SMILES) | nerve fiber thinning [1] | neuroprotection in the eye [2] | IOP-lowering effect [3] | adverse effects (in vivo) | duration of IOP decrease (in vivo) [h] | mean decrease in IOP (topically active carbonic anhydrase inhibitor) [%]
Brc1c(NC2=NCCN2)ccc2nccnc12 [Brimonidine] | lessened or totally prevented | exhibited neuroprotective effects in the eye | about 20% |  |  | 
CCN[C@H]1C[C@H](C)S(=O)(=O)c2sc(S(N)(=O)=O)cc21 [MK 507] |  |  |  | blanching of the conjunctiva, minimal mydriasis and eyelid retraction | ≤ 12 | 25
CC(C)(C)NC[C@H](O)COc1nsnc1N1CCOCC1 [timolol, (S)-1-tert-Butylamino-3-[(4-morpholino-1,2,5-thiadiazol-3-yl)oxy]-2-propanol] |  | did not exhibit neuroprotection |  |  |  | 
